Measured values taken from PubChem BioAssay (NCI).
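Compound exposure: 48 hours, 5 concentrations, 96-well plates. At the TGI there is no net growth.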

Assays:
Experiment in all cases: inhibition of tumour cell growth, NCI panel, 48 h
[1] = system: SK-OV-3 ovarian
[2] = system: A549 NSCLC
[3] = system: SW-620 colon
[4] = system: MCF7 breast
[5] = system: OVCAR-4 ovarian
[6] = system: LOX IMVI melanoma
[7] = system: RPMI-8226 leukemia
[8] = system: SK-MEL-28 melanoma
[9] = system: HOP-92 NSCLC
[10] = system: CAKI-1 renal
[11] = system: NCI-H522 lung
[12] = system: EKVX NSCLC
[13] = system: HL-60(TB) leukemia
[14] = system: ACHN renal
[15] = system: TK-10 renal
[16] = system: M14 melanoma
[17] = system: U251 CNS
[18] = system: NCI-H23 lung
[19] = system: CCRF-CEM leukemia
[20] = system: OVCAR-5 ovarian

SMILES	TGI [1] [µM]	TGI [2] [µM]	TGI [3] [µM]	TGI [4] [µM]	TGI [5] [µM]	TGI [6] [µM]	TGI [7] [µM]	TGI [8] [µM]	TGI [9] [µM]	TGI [10] [µM]	TGI [11] [µM]	TGI [12] [µM]	TGI [13] [µM]	TGI [14] [µM]	TGI [15] [µM]	TGI [16] [µM]	TGI [17] [µM]	TGI [18] [µM]	TGI [19] [µM]	TGI [20] [µM]
COc1cc2c(OC)c3cc(C)oc(=O)c3c(O)c2c(O)c1-c1c(OC)cc2c(OC)c3cc(C)oc(=O)c3c(O)c2c1O	> 100	38.9	> 100	51.1	> 100	43.8	40.2	53.5	55.9	47	40	62.3	33.9	33.3	66.8	35.4	31.7	32.5	39.3	40.9
COc1cc(/C=C2\N=C(c3ccccc3)N(c3ccc4c(c3)Sc3cc(N5C(=O)/C(=C/c6cc(OC)c(OC)c(OC)c6)N=C5c5ccccc5)ccc3N4)C2=O)cc(OC)c1OC	38.1	> 100	> 100	37.1	36.9	52	88.9	> 100	40.6	37.1	42.5	54.6	65.3	36.4	30.9	80.8	44.2	40.3	57.3	39.6
CCN(CC)CCOc1ccc(N2Cc3cc(OC)c(OC)cc3C2=O)cc1	> 100	> 100	> 100	> 100	> 100	> 100	> 100	> 100	> 100	> 100	> 100	> 100	> 100	> 100	> 100	> 100	> 100	> 100	> 100	> 100
Brc1ccc(N=C/C=C(\Nc2ccc(Br)cc2)C23CC4CC(CC(C4)C2)C3)cc1	> 100	> 100	92.1	28.4	31.3	21.8	> 100	> 59.5	31.5	25.4	30.5	56.2	23.3	23.2	28.6	71	28.7	> 65.8	4.5	> 67.8
CCOC(=O)c1sc2c(c1OC(=O)c1ccc(Cl)cc1Cl)c(=O)n(-c1ccccc1)c(=S)n2-c1ccccc1	> 81.2	> 100	> 100	> 100	> 100	> 81.1	> 54.5	> 100	26	> 100	> 100	97.2	30.9	> 100	> 100	> 100	> 56.1	> 82.6	> 100	> 100
COc1ccc(NS(=O)(=O)c2ccc3ncn(NS(=O)(=O)c4ccc(I)cc4)c(=O)c3c2)cc1	> 100	> 100	> 100	> 100	> 100	> 100	> 100	> 100	> 100	> 100	> 100	> 100	> 100	> 100	> 100	> 100	> 100	> 100	> 100	> 100
COc1ccc(/C=C2\N=C(N3CCOCC3)NC2=O)cc1	> 100	> 100	> 100	> 100	> 100	> 100	> 100	> 100	> 100	> 100	> 100	> 100	> 100	> 100	> 100	> 100	> 100	> 100	> 100	> 100
C/C(CC(O)(C(F)(F)Cl)C(F)(F)Cl)=N\Nc1ccccc1	> 100	> 100	> 100	> 100	> 100	> 100	> 100	> 100	69.6	67.2	> 100	93.8	62.5	85.2	95.3	> 100	89.4	50	> 100	> 100
CNC(=O)Nn1c(SC)nc2ccccc21	> 100	> 100	> 100	> 100	> 100	> 100	> 100	> 100	> 100	> 100	> 100	> 100	> 100	> 100	> 100	> 100	> 100	> 100	> 100	> 100
N[C@@H]1c2c(Br)sc(Br)c2C(=O)[C@H]1Br	> 100	> 100	44.4	> 100	89.5	33.3	39.5	54.8	33	66.4	29	> 88	> 24.8	43.8	> 100	50.9	60.1	57.4	> 22.6	> 100
